Columns and labels:
[1] = test system: ZR-75-1 human mammary cancer cells; experiment: MTT test, proliferation of ZR-75-1; type: cell-based; conditions: for activity at 100 µM / activity at 1 µM / activity at 0.01 µM: Homo sapiens, 72 h, control = 100%, read-out: level of proliferation; for activity at 100 µM: ZR-75-1, 10^-4 M; for activity at 1 µM: ZR-75-1, 10^-6 M; for activity at 0.01 µM: ZR-75-1, 10^-8 M; for effect on cellular increase, ZR-75-1 (in words): MTT test
Method: (§1) The cells that were cultured came from the ATCC (American Type Culture Collection).
(§2) The cellular lines are kept in culture in a monolayer at 37° C. in closed culture dishes (Nunc. Gibco BRL, Life Technologies, Belgium) containing the minimum essential medium (MEM, Gibco) supplemented with 5% of Foetal Calf Serum, (FCS, Gibco), 0.6 mg/ml of glutamine (Gibco) and a mixture of 200 IU/mi of penicillin (Gibco), 200 μg/ml of streptomycin (Gibco) and 0.1 mg/ml of gentamycin (Gibco). The foetal calf serum is decomplemented for 1 hour at 56° C.
(§3) This test is based on the mitochondrial reduction by living metabolically active cells of the MTT (3-(4,5-dimethylthiazol-2-yl)-2,5-diphenyltetrazolium bromide) of yellowish colour into a blue coloured product, formazan. The quantity of formazan obtained is directly proportional to the number of living cells. After incubation of the cells for 24 hours in microplates with 96 flat bottomed wells, the culture medium is replaced by 100 μl of fresh culture medium containing the drug to be tested.
(§4) The microplates are then incubated for 3 hours at 37° C. and centrifuged for 10 minutes at 400 g (GPR centrifuge, Beckman). The MTT solution is replaced by 100 μl of dimethylsulphoxide (Merck). The microplates are agitated (Vari-Shaker, Dynatech) for 10 minutes.
(§5) In the microplates, the control cells like the treated cells were incubated in a medium without the compounds to be tested for 24 hours. The control cells are incubated in a medium without a drug throughout the whole experiment, while the treated cells are incubated in different media. These media contain the molecule to be tested at various concentrations: 10^-8 M, 10^-6 M and 10^-4 M. All the tests are carried out in 6 duplicates.
(§6) The statistical comparisons are carried out according to the Fisher Test:
(§7) The mean optical density measured for each experimental condition is expressed as a percentage in relation to the laid down control condition being equal to 100%.

[2] = test system: A549 human pulmonary cancer cells; experiment: MTT test, proliferation of A549; type: cell-based; conditions: Homo sapiens, 72 h, control = 100%, read-out: level of proliferation; for activity at 100 µM: A549, 10^-4 M; for activity at 1 µM: A549, 10^-6 M; for activity at 0.01 µM: A549, 10^-8 M
[3] = test system: A-427 human pulmonary cancer cells; experiment: MTT test, proliferation of A-427; conditions: for activity at 0.01 µM / activity at 1 µM / activity at 100 µM: Homo sapiens, A-427, 72 h, read-out: level of proliferation; for effect on cellular increase, A-427 (in words): MTT test
[4] = test system: T-47D human mammary cancer cells; experiment: MTT test, proliferation of T-47D; type: cell-based; conditions: for activity at 100 µM / activity at 1 µM / activity at 0.01 µM: Homo sapiens, T47D, T-47D, 72 h, control = 100%, read-out: level of proliferation; for activity at 100 µM: 10^-4 M; for activity at 1 µM: 10^-6 M; for activity at 0.01 µM: 10^-8 M; for effect on cellular increase, T-47D (in words): MTT test
Method: as §1, §2, §3, §4, §5, §6, §7

Compound | activity at 100 µM [1] | activity at 1 µM [1] | activity at 0.01 µM [1] | activity at 100 µM [2] | activity at 1 µM [2] | activity at 0.01 µM [2] | activity at 0.01 µM [3] | activity at 1 µM [3] | activity at 100 µM [3] | activity at 100 µM [4] | activity at 1 µM [4] | activity at 0.01 µM [4] | effect on cellular increase, ZR-75-1 (in words) [1] | effect on cellular increase, A-427 (in words) [3] | effect on cellular increase, T-47D (in words) [4]
Cc1cc2c(cc1/C=C(\c1ccc(C(=O)O)cc1)C(F)(F)F)C(C)(C)CCC2(C)C [CB62899, (E) 4-[1-trifluoromethyl-2-(5,6,7,8-tetrahydro-3,5,5,8,8-pentamethyl-2-naphthalenyl)-1-ethenyl]benzoic acid] | 0.4% | 112% | 112% | 0.45% | 119% | 131% | 115% | 124% | 0% | 1.7% | 73.7% | 128% | – | – | –
C/C(=C/c1ccc2c(c1)C(C)(C)CCS2(=O)=O)c1ccc(C(=O)O)cc1 [CB72484] | 129% | 138% | 145% | 129% | 111% | 114% | 131% | 130% | 182% | 99% | 128% | 129% | – | – | –
C/C(=C/c1cc2c(cc1C)C(C)(C)CCC2(C)C)c1ccc(C(=O)O)cc1 [CB32706] | 0.7% | 93.1% | 95% | 6% | 103% | 101% | 103% | 99.6% | 0.8% | 0% | 88.6% | 94% | – | – | –
Cc1cc2c(cc1C(=O)c1ccc(C(=O)Nc3ccc(O)cc3)cc1)C(C)(C)CCC2(C)C [CB81616] | 0% | 134% | 136% | – | – | – | – | – | – | 1.4% | 96.7% | 103% | – | – | –
C/C(=C/c1ccc2c(c1)C(C)(C)CCS2(=O)=O)c1ccc(-c2nnn[nH]2)cc1 [CB39122, (Z) 5-[4-[1-(3',4'-dihydro-4',4'-dimethyl-1',1'-dioxide-2'H-1'-benzothiopyran-6'-yl)-2-propenyl]phenyl]-1H-tetrazole] | 74.2% | 97.3% | 102% | 84.8% | 98% | 96.2% | 93.9% | 96.5% | 27.1% | 57.1% | 100% | 102% | – | – | –
CCCCCCCOc1cc2c(cc1/C(C)=C/c1ccc(C(=O)O)cc1)C(C)(C)CCS2(=O)=O [CB65757] | 1% | 118% | 116% | 0% | 111% | 108% | 106% | 146% | 0% | 0% | 126% | 124% | – | – | –
C/C(=C\c1ccc2c(c1)C(C)(C)CCS2(=O)=O)c1ccc(C(=O)O)cc1 [CB39356] | 59.6% | 148% | 133% | 72% | 105% | 105% | 124% | 129% | 70.7% | 36.4% | 108% | 86% | do not influence the cellular increase of the lineages under consideration | a stimulation of the cellular increase | do not influence the cellular increase of the lineages under consideration
C/C(=C\c1cc2c(cc1C)C(C)(C)CCC2(C)C)c1ccc(-c2nnn[nH]2)cc1 [CB40747, (E) 5-[4-[1-(5,6,7,8-tetrahydro-3,5,5,8,8-pentamethyl-2-naphthalenyl)-2-propenyl]phenyl]-1H-tetrazole] | 0% | 107% | 111% | 0% | 192% | 176% | 100% | 83.7% | 1.7% | 0% | 85.2% | 106% | – | a stimulation of the cellular increase | –
COc1cc2c(cc1/C(C)=C/c1ccc(C(=O)O)cc1)C(C)(C)CCS2(=O)=O [CB77787] | 93.5% | 113% | 114% | 103% | 125% | 118% | 120% | 110% | 163% | 86.3% | 120% | 129% | – | – | –
C/C(=C\c1ccc2c(c1)C(C)(C)CCS2(=O)=O)c1ccc(-c2nnn[nH]2)cc1 [CB15068, (E) 5-[4-[1-(3',4'-dihydro-4'4'-dimethyl-1',1'-dioxide-2'H-1'-benzothiopyran-6'-yl)-2-propenyl]phenyl]-1H-tetrazole] | 59.3% | 99.9% | 99.2% | 81.8% | 97.3% | 92.7% | 88.5% | 98% | 24.3% | 32.2% | 87.8% | 101% | do not influence the cellular increase of the lineages under consideration | – | do not influence the cellular increase of the lineages under consideration
Cc1cc2c(cc1/C=C(\c1ccc(-c3nnn[nH]3)cc1)C(F)(F)F)C(C)(C)CCC2(C)C [CB63237, (E) 5-[4-[1-trifluoromethyl-2-(5,6,7,8-tetrahydro-3,5,5,8,8-pentamethyl-2-naphthalenyl)-1-ethenyl]phenyl]-1H-tetrazole] | 0% | 106% | 86.5% | 2.1% | 140% | 124% | 88.1% | 148% | 4.1% | 4.1% | 125% | 120% | – | – | –
C=C(c1ccc(C(=O)Nc2ccc(O)cc2)cc1)c1cc2c(cc1C)C(C)(C)CCC2(C)C [CB65801] | 0.2% | 93.4% | 138% | – | – | – | – | – | – | 1.6% | 62.7% | 92.8% | – | – | –
C/C(=C\c1ccc2c(c1)C(C)(C)CCS2)c1ccc(C(=O)O)cc1 [CB12994] | 31.8% | 126% | 121% | 53.2% | 89% | 92.1% | 107% | 93.6% | 4.4% | 1.8% | 51.8% | 67.6% | – | – | –
C/C(=C/c1ccc2c(c1)C(C)(C)CCS2)c1ccc(C(=O)O)cc1 [CB41666] | 48.5% | 115% | 112% | 63.2% | 89.9% | 94.5% | 83% | 91.2% | 7.6% | 28% | 69.5% | 88.7% | – | – | –
